PubChem BioAssay (NCI)
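Values below derive from 48-hour exposures of cells grown in 96-well plates, with endpoints linearly interpolated between the two concentrations bracketing the appropriate inhibition level. GI50 is the concentration that inhibits growth by half. TGI: concentration producing complete growth inhibition.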

Assays:
Assay in all cases: growth of human tumour cells (NCI), 48 h
SK-MEL-2 melanoma = test system: SK-MEL-2 melanoma
MDA-MB-435 = test system: MDA-MB-435
TK-10 renal = test system: TK-10 renal
MOLT-4 leukemia = test system: MOLT-4 leukemia
HOP-62 NSCLC = test system: HOP-62 NSCLC
SR leukemia = test system: SR leukemia
PC-3 prostate = test system: PC-3 prostate
KM12 colon = test system: KM12 colon
NCI-H460 lung = test system: NCI-H460 lung
SF-268 CNS = test system: SF-268 CNS
SK-MEL-5 melanoma = test system: SK-MEL-5 melanoma
DU-145 prostate = test system: DU-145 prostate
SK-MEL-28 melanoma = test system: SK-MEL-28 melanoma
NCI-H522 lung = test system: NCI-H522 lung
MCF7 breast = test system: MCF7 breast
UACC-257 melanoma = test system: UACC-257 melanoma
SF-539 CNS = test system: SF-539 CNS
HCT-15 colon = test system: HCT-15 colon
OVCAR-5 ovarian = test system: OVCAR-5 ovarian
NCI-H23 lung = test system: NCI-H23 lung
NCI-H226 lung = test system: NCI-H226 lung
SF-295 CNS = test system: SF-295 CNS
OVCAR-3 ovarian = test system: OVCAR-3 ovarian
MDA-MB-231 breast = test system: MDA-MB-231 breast
OVCAR-4 ovarian = test system: OVCAR-4 ovarian
ACHN renal = test system: ACHN renal
RPMI-8226 leukemia = test system: RPMI-8226 leukemia
NCI/ADR-RES ovarian = test system: NCI/ADR-RES ovarian
EKVX NSCLC = test system: EKVX NSCLC
BT-549 breast = test system: BT-549 breast
SN12C renal = test system: SN12C renal
UACC-62 melanoma = test system: UACC-62 melanoma
HOP-92 NSCLC = test system: HOP-92 NSCLC
M14 melanoma = test system: M14 melanoma
RXF 393 renal = test system: RXF 393 renal
786-0 renal = test system: 786-0 renal
OVCAR-8 ovarian = test system: OVCAR-8 ovarian
SNB-75 CNS = test system: SNB-75 CNS
SK-OV-3 ovarian = test system: SK-OV-3 ovarian
A549 NSCLC = test system: A549 NSCLC
SW-620 colon = test system: SW-620 colon
T-47D breast = test system: T-47D breast
IGROV1 ovarian = test system: IGROV1 ovarian
U251 CNS = test system: U251 CNS
LOX IMVI melanoma = test system: LOX IMVI melanoma
HCC-2998 colon = test system: HCC-2998 colon
CAKI-1 renal = test system: CAKI-1 renal
K-562 leukemia = test system: K-562 leukemia
SNB-19 CNS = test system: SNB-19 CNS
UO-31 renal = test system: UO-31 renal
HT29 colon = test system: HT29 colon
CCRF-CEM leukemia = test system: CCRF-CEM leukemia
COLO 205 colon = test system: COLO 205 colon
HCT-116 colon = test system: HCT-116 colon
HL-60(TB) leukemia = test system: HL-60(TB) leukemia

In the case of `O=c1cc(-c2ccccc2)oc2cc(OC/C(=N/O)c3ccc(F)cc3)ccc12`, the GI50 (SK-MEL-2 melanoma) is reported as 20.2 µM, the TGI (SK-MEL-2 melanoma) is reported as > 50 µM and the GI50 (MDA-MB-435) is reported as 13.8 µM. The TGI (MDA-MB-435) was > 50 µM, the GI50 (TK-10 renal) was 13.7 µM and the TGI (TK-10 renal) was 31.8 µM. For the same compound, the GI50 (MOLT-4 leukemia) was > 50 µM, the TGI (MOLT-4 leukemia) was > 50 µM and the GI50 (HOP-62 NSCLC) was > 50 µM. For the same compound, the TGI (HOP-62 NSCLC) was > 50 µM, the GI50 (SR leukemia) was 23 µM and the TGI (SR leukemia) was > 50 µM. For the same compound, the GI50 (PC-3 prostate) was 11.9 µM, the TGI (PC-3 prostate) was 40.1 µM and the GI50 (KM12 colon) was 11.3 µM. The TGI (KM12 colon) was 29.2 µM, the GI50 (NCI-H460 lung) was 12.9 µM and the TGI (NCI-H460 lung) was 44.2 µM. The GI50 (SF-268 CNS) was 19.7 µM, the TGI (SF-268 CNS) was > 50 µM and the GI50 (SK-MEL-5 melanoma) was 8.75 µM. For the same compound, the TGI (SK-MEL-5 melanoma) was 21.1 µM, the GI50 (DU-145 prostate) was 18.1 µM and the TGI (DU-145 prostate) was > 50 µM. For the same compound, the GI50 (SK-MEL-28 melanoma) was 27.1 µM, the TGI (SK-MEL-28 melanoma) was > 50 µM and the GI50 (NCI-H522 lung) was 14.9 µM. The TGI (NCI-H522 lung) was > 50 µM, the GI50 (MCF7 breast) was 11.9 µM and the TGI (MCF7 breast) was 31 µM. The GI50 (UACC-257 melanoma) was 35.3 µM, the TGI (UACC-257 melanoma) was > 50 µM and the GI50 (SF-539 CNS) was 11.5 µM. For the same compound, the TGI (SF-539 CNS) was 26 µM, the GI50 (HCT-15 colon) was 18.5 µM and the TGI (HCT-15 colon) was > 50 µM. The GI50 (OVCAR-5 ovarian) was > 50 µM, the TGI (OVCAR-5 ovarian) was > 50 µM and the GI50 (NCI-H23 lung) was 31.8 µM. For the same compound, the TGI (NCI-H23 lung) was > 50 µM, the GI50 (NCI-H226 lung) was 27.6 µM and the TGI (NCI-H226 lung) was > 50 µM. It also gave a GI50 (SF-295 CNS) of 8.93 µM, a TGI (SF-295 CNS) of 24.6 µM and a GI50 (OVCAR-3 ovarian) of 11.4 µM. For the same compound, the TGI (OVCAR-3 ovarian) was 35.6 µM, the GI50 (MDA-MB-231 breast) was 16.3 µM and the TGI (MDA-MB-231 breast) was > 50 µM. The GI50 (OVCAR-4 ovarian) was > 50 µM, the TGI (OVCAR-4 ovarian) was > 50 µM and the GI50 (ACHN renal) was 19.2 µM. The TGI (ACHN renal) was > 50 µM, the GI50 (RPMI-8226 leukemia) was 15.9 µM and the TGI (RPMI-8226 leukemia) was > 50 µM. The GI50 (NCI/ADR-RES ovarian) was 21 µM, the TGI (NCI/ADR-RES ovarian) was > 50 µM and the GI50 (EKVX NSCLC) was 17.2 µM. For the same compound, the TGI (EKVX NSCLC) was > 50 µM, the GI50 (BT-549 breast) was 15.1 µM and the TGI (BT-549 breast) was 36.9 µM. The GI50 (SN12C renal) was 15.5 µM, the TGI (SN12C renal) was > 50 µM and the GI50 (UACC-62 melanoma) was 14.8 µM. For the same compound, the TGI (UACC-62 melanoma) was > 50 µM, the GI50 (HOP-92 NSCLC) was 28.6 µM and the TGI (HOP-92 NSCLC) was > 50 µM. For the same compound, the GI50 (M14 melanoma) was 46.7 µM, the TGI (M14 melanoma) was > 50 µM and the GI50 (RXF 393 renal) was 14 µM. The TGI (RXF 393 renal) was 40.2 µM, the GI50 (786-0 renal) was 39.6 µM and the TGI (786-0 renal) was > 50 µM. For the same compound, the GI50 (OVCAR-8 ovarian) was 32.2 µM, the TGI (OVCAR-8 ovarian) was > 50 µM and the GI50 (SNB-75 CNS) was > 50 µM. The TGI (SNB-75 CNS) was > 50 µM, the GI50 (SK-OV-3 ovarian) was 47.9 µM and the TGI (SK-OV-3 ovarian) was > 50 µM. For the same compound, the GI50 (A549 NSCLC) was 20.1 µM, the TGI (A549 NSCLC) was > 50 µM and the GI50 (SW-620 colon) was 48.1 µM. For the same compound, the TGI (SW-620 colon) was > 50 µM, the GI50 (T-47D breast) was 25.5 µM and the TGI (T-47D breast) was > 50 µM. The GI50 (IGROV1 ovarian) was 19.6 µM, the TGI (IGROV1 ovarian) was > 50 µM and the GI50 (U251 CNS) was 22 µM. For the same compound, the TGI (U251 CNS) was > 50 µM, the GI50 (LOX IMVI melanoma) was 20.8 µM and the TGI (LOX IMVI melanoma) was > 50 µM. For the same compound, the GI50 (HCC-2998 colon) was 15.3 µM, the TGI (HCC-2998 colon) was 45.8 µM and the GI50 (CAKI-1 renal) was 11.8 µM. The TGI (CAKI-1 renal) was 38.6 µM, the GI50 (K-562 leukemia) was 27.5 µM and the TGI (K-562 leukemia) was > 50 µM. For the same compound, the GI50 (SNB-19 CNS) was > 50 µM, the TGI (SNB-19 CNS) was > 50 µM and the GI50 (UO-31 renal) was 14.7 µM. For the same compound, the TGI (UO-31 renal) was > 50 µM, the GI50 (HT29 colon) was 29.6 µM and the TGI (HT29 colon) was > 50 µM. The GI50 (CCRF-CEM leukemia) was 23.7 µM, the TGI (CCRF-CEM leukemia) was > 50 µM and the GI50 (COLO 205 colon) was 26.1 µM. For the same compound, the TGI (COLO 205 colon) was > 50 µM, the GI50 (HCT-116 colon) was 23.4 µM and the TGI (HCT-116 colon) was > 50 µM. The GI50 (HL-60(TB) leukemia) was 19 µM and the TGI (HL-60(TB) leukemia) was > 50 µM.
